Test results reported in PMC2730762 (Biochemistry, 2009).
Where a SMILES comes first, the peptide text is derived from it. [ ]: non-standard residue; d: D form. The star is where a group is joined. Sta = CC(C)C[C@H](N)[C@@H](O)CC(=O)O; Isovaleryl = CC(C)CC(=O)*

What was measured:
[1] = molecular target: naturally-occurring PfPM1; conditions: cited from earlier work
PfPM1 = PfPM1 (Plasmodium falciparum, UniProt Q7KQM4); experiment: biochemical
[2] = tested on: cultured P. falciparum parasites; conditions: cited from earlier work

PfPM1, sequence (Q7KQM4 124-452): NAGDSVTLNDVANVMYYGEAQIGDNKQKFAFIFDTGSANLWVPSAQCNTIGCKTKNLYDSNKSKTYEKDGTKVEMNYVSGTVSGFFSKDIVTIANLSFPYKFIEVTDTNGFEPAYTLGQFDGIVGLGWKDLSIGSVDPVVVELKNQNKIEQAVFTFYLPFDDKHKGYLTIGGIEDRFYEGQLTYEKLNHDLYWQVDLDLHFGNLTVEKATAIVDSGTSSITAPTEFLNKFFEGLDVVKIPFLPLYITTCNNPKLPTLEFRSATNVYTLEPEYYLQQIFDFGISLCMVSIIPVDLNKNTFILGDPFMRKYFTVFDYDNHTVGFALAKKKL

CC(C)CC(=O)N[C@H](C(=O)N[C@H](C(=O)N[C@@H](CC(C)C)[C@@H](O)CC(=O)N[C@@H](C)C(=O)N[C@@H](CC(C)C)[C@@H](O)CC(=O)O)C(C)C)C(C)C [pepstatin A] (Isovaleryl-VV[Sta]A[Sta]-OH)
Ki [1]: 0.7 nM
Ki (PfPM1): 1.4 ± 0.2 nM
killing of cultured P. falciparum parasites [2]: kill cultured P. falciparum parasites
